The test system of assay [1] is PMN-MDSC. As to the kind of experiment: T cell proliferation inhibition assay of PMN-MDSC. In kind it is cell-based, mice. As to the method: 6-4) T cell proliferation assay: spleens of OT-1 mice were isolated, single-cell suspensions in PBS (5×10^7 cells/ml) were prepared, and CTV dye with a final concentration of […] was added to obtain a mixture. The mixture was incubated in a 37° C. water bath for 20 minutes, added with 5 times the volume of ice pre-cooled RPMI medium (RPMI-1640+10% FBS), mixed by inversion, stood at room temperature for 5 minutes, centrifuged for 5 minutes at 400 g, and then resuspended in RPMI medium (1×10^6 cells/ml). 80 μl of CTV-labeled cells was added with 40 μl of OVA peptide at a concentration of 100 ng/ml, and then supplemented with 80 μl of RPMI medium. The solution was added to the wells of a 96-well U bottom plate and incubated at 37° C. in a carbon dioxide incubator, and then antibody labeling and flow assay were carried out 48-72 hr later.
6-5) T cell proliferation inhibition assay of PMN-MDSC: spleens of B16 tumor-bearing mice were isolated, single-cell suspensions were prepared and labeled with antibodies, and PMN-MDSC cells (CD45^+/CD11b^+/Lying6G^+) were sorted by flow cytometry and resuspended in RPMI medium (1×10^6 cells/ml). 80 μl of CTV-labeled cells in […]) was added with 40 μl of OVA peptide at a concentration of 100 ng/ml, PMN-MDSC cells, and culture medium. […]

Assay [2] has as its system B16 tumor. The assay is described as follows: B16 tumor model with intraperitoneal Tasquinimod. It counts as in vivo, mice. The settings on record: for tumor growth: 20 μg/mouse intraperitoneally. As to the method: 7-2) Tumor model: B16 cells (1.5×10^5 cells/mouse) were inoculated into mice subcutaneously, and 20 μg of Tasquinimod/mouse was injected intraperitoneally on day 2. Tumor size was measured every 2-3 days, and tumor growth curves were plotted. Tumors were isolated from mice on day 19, and the percentage of immune cells was determined by flow analysis.

Assay [3] deals with PMN-MDSC. The assay is described as follows: PMN-MDSC in vitro cell migration assay (Transwell). In kind it is cell-based, mice. The settings on record: KO PMN-MDSCs, 2 hr. As to the method: 6-2) PMN-MDSC in vitro cell migration assay (Transwell): single-cell suspensions were prepared from isolated spleens of tumor-bearing mice and labeled with antibodies, and PMN-MDSC cells (CD45+/CD11b+/Ly6G+) were sorted. 10^5 PMN-MDSC cells were added to the upper layer of Transwell and then placed in a 37° C. incubator for 2 hr, and then the number of PMN-MDSC cells in the lower layer was analyzed by flow assay to calculate the migration ratio of the cells.
7-1) PMN-MDSC in vitro cell migration assay (Transwell): spleens of B16 tumor-bearing mice were isolated, single-cell suspensions were prepared and labeled with antibodies, and PMN-MDSC cells (CD45+/CD11b+/Lying6G+) were sorted by flow cytometry. 10^5 PMN-MDSC cells were added to the upper layer of Transwell and then placed in a 37° C. incubator, and then S100A8/A9 inhibitor (Tasquinimod) or DMSO control with a final concentration of 1 μg/ml was added, the number of PMN-MDSC cells in the lower layer was analyzed by flow-assay after 2 hr, and the percentage of cell migration was calculated.

As for `COc1cccc2c1c(O)c(C(=O)N(C)c1ccc(C(F)(F)F)cc1)c(=O)n2C` [Tasquinimod], the results for the “inhibitory effect of PMN-MDSCs on T cell proliferation” value in assay [1] (KO PMN-MDSCs) and in assay [1] (WT PMN-MDSCs) were “little effect” and “significantly reduced the inhibitory effect”, respectively. Further, the tumor growth entry in assay [2] (CD300LD KO mice) is recorded as “barely inhibited tumor growth”; in assay [2] (WT mice) it was “inhibited tumor growth”. Moreover, the “proportion of intratumoral PMN-MDSCs” value in assay [2] (tumors isolated on day 19, WT and KO mice) is reported as “consistent with the changes of tumors”.

B1: S100A8/A9 proteins: S100A8/A9 proteins added in the in vitro migration assay (protein, UniProt P05109 1-93; P06702 1-114, looked up)
Protein S100-A8: MLTELEKALNSIIDVYHKYSLIKGNFHAVYRDDLKKLLETECPQYIRKKGADVWFKELDINTDGAVNFQEFLILVIKMGVAAHKKSHEESHKE
Protein S100-A9: MTCKMSQLERNIETIINTFHQYSVKLGHPDTLNQGEFKELVRKDLQNFLKKENKNEKVIEHIMEDLDTNADKQLSFEEFIMLMARLTWASHEKMHEGDEGPGHHHKPGLGEGTP
Turning to B1, the “in vitro migration ability of PMN-MDSC” value in assay [3] is “enhance the weakened migration ability”.
